Structures are written as SMILES.

Usually EC50 stands for the concentration at which the effect is half-maximal.

In this assay the target is Methionine aminopeptidase 2 (Homo sapiens) (UniProt P50579). Briefly: Inhibition of MetAP2 activity in HUVEC assessed as inhibition of cell proliferation by MTT assay.
Chain of Methionine aminopeptidase 2 (Homo sapiens) (P50579 whole entry, looked up): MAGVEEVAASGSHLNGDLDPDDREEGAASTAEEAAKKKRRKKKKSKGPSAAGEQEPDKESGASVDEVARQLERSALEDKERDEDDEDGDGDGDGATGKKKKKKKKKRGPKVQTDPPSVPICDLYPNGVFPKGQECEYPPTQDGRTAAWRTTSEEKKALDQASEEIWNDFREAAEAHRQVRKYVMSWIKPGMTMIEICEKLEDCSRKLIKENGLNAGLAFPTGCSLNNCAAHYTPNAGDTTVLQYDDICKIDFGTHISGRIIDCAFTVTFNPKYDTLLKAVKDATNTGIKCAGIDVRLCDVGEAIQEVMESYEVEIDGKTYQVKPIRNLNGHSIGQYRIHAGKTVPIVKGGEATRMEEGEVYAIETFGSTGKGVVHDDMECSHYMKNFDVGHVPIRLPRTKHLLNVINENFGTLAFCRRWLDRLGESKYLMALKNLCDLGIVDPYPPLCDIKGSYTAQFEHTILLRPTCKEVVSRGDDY
`CO[C@@H]1[C@H](OC(=O)N[C@@H](C(N)=O)C(C)(C)O)CC[C@]2(CO2)[C@H]1[C@@]1(C)O[C@@H]1C[C@@H]1OC1(C)C`: the EC50 is 12 nM.
As to `CO[C@@H]1[C@H](OC(=O)N[C@@H](C(N)=O)C(C)(C)O)CC[C@]2(CO2)[C@H]1[C@@]1(C)O[C@@H]1C[C@H]1OC1(C)C`, the EC50 is 8.8 nM.
To `CO[C@@H]1[C@H](OC(=O)N[C@@H](C(N)=O)C(C)C)CC[C@]2(CO2)[C@H]1[C@@]1(C)O[C@@H]1C/C=C(\C)CO` belongs 7.1 nM; to `CO[C@@H]1[C@H](OC(=O)N[C@@H](C(N)=O)C(C)C)CC[C@]2(CO2)[C@H]1[C@@]1(C)O[C@@H]1C[C@@H]1OC1(C)C`, 6.5 nM; to `CO[C@@H]1[C@H](OC(=O)N[C@@H](C(N)=O)C(C)C)CC[C@]2(CO2)[C@H]1[C@@]1(C)O[C@@H]1C[C@H]1OC1(C)C`, 1.3 nM.
The result for `CO[C@@H]1[C@H](OC(=O)N[C@@H](C(N)=O)C(C)(C)O)CC[C@]2(CO2)[C@H]1[C@@]1(C)O[C@@H]1CC=C(C)C` reads 0.3 nM; that for `CO[C@@H]1[C@H](OC(=O)N[C@@H](C(N)=O)C(C)C)CC[C@]2(CO2)[C@H]1[C@@]1(C)O[C@@H]1CC=C(C)C`, 0.095 nM.

Source of the values: BindingDB's records for doi:10.1124/dmd.112.048355 (Glaxosmithkline, 2013).
